Literature values, collected in patent publication US5989558A, “Method of using rosmarinus officinalis for treating various diseases” (priority 1997, dated 1999).
Like-named read-outs stand apart in the source and are kept apart here.

Key:
[1] = 400 mg three times a day

For `Fc1ccc(C(c2ccc(F)cc2)N2CCN(C/C=C/c3ccccc3)CC2)cc1` [flunarizine], the “nausea as side effect” value (treatment of dizziness, poor hearing, and tinnitus) is given as “all of the drugs cause nausea”.

In the case of `CC(=O)CCCCn1c(=O)c2c(ncn2C)n(C)c1=O` [pentoxifylline], the ulcers healed ([1]; after 60 days) is given as 7 ulcers, the further ulcer healed ([1]; after 120 days) is given as “Another ulcer healed after 120 days” and the “patients able to complete the six month program” value ([1]; of 12 patients, limited by side effects) is given as 9 patients. For the same compound, the ulcer size reduction ([1]; one ulcer, after six months) was “reduced in size from 4 cm to 2 cm” and the “nausea as side effect” value (in vivo) was “all of the drugs cause nausea”.
